We go through 10 compounds from US6451789B1, “1-aza-2-alky-6-aryl-cycloalkanes” (Les Labortoires Servier, priority 1999, dated 2002).

What all share (format): in vivo
In test [1] the test system is NMRI mouse. The experiment in a line: Abdominal contractions induced by phenyl-p-benzoquinone (PBQ) in the NMRI mouse. The following applies: IP, PBQ at t=30 min, cramps counted t=35-45 min. Here is the method: Abdominal Contractions Induced by Phenyl-p-Benzoquinone (PBQ) in the NMRI Mouse
Intraperitoneal administration of an alcoholic solution of PBQ causes abdominal cramps in the mouse (SIEGNUND et al., Proc. Soc. Exp. Biol., 1957, 95, 729-731). The cramps are characterized by repeated contractions of the abdominal musculature, accompanied by extension of the hind limbs. Most analgesics antagonise these abdominal cramps (COLLIER et al., Brit. J. Pharmacol. Chem., 1968, 32, 295-310). At t=0 min., the animals are weight and the compound being studied is administered by the IP route. A group of contol animals is given the solvent used for the compound. At t=30 min., an alcoholic solution of PBQ (0.2%) is administered by the IP route in a volume of 0.25 ml/mouse. Immediately after administration of the PBQ, the animals are placed in cylinders of plexiglass (L=19.5 cm; I.D.=5 cm). From t=35 min. to t=45 min., the animals' reaction is observed and the experimenter notes the total number of abdominal cramps per animal. The Table hereinbelow gives the percentage inhibition of the number of abdominal cramps measured in the control animals, at the active dose of the compound studied.

Test [2] relates to Wistar rat. The test is described as follows: Social recognition in the Wistar rat. As to conditions: intraperitoneal route, dose 3 mg/kg, second encounter after 2 hours. An excerpt: Social Recognition in the Wistar Rat
Initially described in 1982 by THOR and HOLLOWAY, (J. Comp. Physiol., 1982, 96, 1000-1006), the social recognition test has subsequently been proposed by various authors (DANTZER et al., Psychopharmacology, 1987, 91, 363-368; PERIO et al., Psycho-pharmacology, 1989, 97, 262-268) for studying the mnemocognitive effects of new compounds. The test is based on the natural expression of the olfactory memory of the rat and its natural tendency to forget and allows evaluation of memorisation, by recognition of a young congeneric animal, by an adult rat. A young rat (21 days), taken at random, is placed for 5 minutes in the cage housing an adult rat. With the aid of a video device, the experimenter observes the social recognition behaviour of the adult rat and measures its overall duration. The young rat is then removed from the adult rat's cage and is placed in its own cage until the second introduction. The adult rat is given the compound under test by intraperitoneal route and, after 2 hours, is again brought into the presence (5 minutes) of the young rat. The social recognition behaviour is then observed again and its duration measured.
The Table hereinbelow gives the difference (T2—T1), expressed in seconds, between the “recognition” times of the 2 encounters.

Test [3] has as its system Wistar rat. The test is described as follows: Object recognition in the Wistar rat. As to conditions: 30 minutes before each session, 24 hours between sessions. The source says:
Object Recognition in the Wistar Rat
The object recognition test in the Wistar rat was initially developed by ENNACEUR and DELACOUR (Behav. Brain Res., 1988, 31, 47-59). The test is based on the spontaneous exploratory activity of the animal and has he characteristics of episodic memory in humans. This memory test is sensitive to ageing (SCALI et al., Eur. J. Pharmacol., 1997, 325, 173-180) and to cholinergic dysfunctions (BARTOLINI et al., Pharm. Biochem. Behav. 1996, 53(2), 277-283) and is based on the differences in the exploration of 2 objects of fairly similar shape—one familiar, the other new. Prior to the test, the animals are habituated to the environment (an enclosure without an object). In the course of a first session, the rats are placed (3 minutes) in the enclosure, in which there are 2 identical objects. The duration of exploration is measured for each object. In the course of the second session (3 minutes), 24 hours later, 1 of the 2 objects is replaced by a new object. The duration of exploration is measured for each object. The assessment criterion is the difference, Delta, expressed in seconds, between the exploration times for the new object and for the familiar object in the course of the second session.
The Table hereinbelow gives the difference, Delta, expressed in seconds, between the exploration times of the 2 objects.

For the compound `CC1=CC(=O)CC(c2ccc(Cl)c(Cl)c2)N1` (racemic) [Example 26, (±)-2-(3,4-Dichlorophenyl)-6-methyl-2,3-dihydro-4(1H)-pyridinone], the “Inhibition (%) of the number of abdominal cramps” value (“Inhibition (%)” for short) in test [1] (dose 10 mg/kg) came to 55%.
On to `CC1=CC(=O)CC(c2ccc(Cl)cc2)N1` (racemic) [Example 24, (±)-2-(4-Chlorophenyl)-6-methyl-2,3-dihydro-4(1H)-pyridinone], for which, in test [2], the “T2 − T1 (s), difference between the recognition times of the 2 encounters” value is -32 s. The “Delta (s), difference between exploration times for new and familiar object” value in test [3] (dose 3 mg/kg, i.p.) was determined as 7.55 s.
As for `CC1=CC(=O)C[C@@H](c2cccc(Cl)c2)N1` [Example 18, (2S)-2-(3-Chlorophenyl)-6-methyl-2,3-dihydro-4-(1H)-pyridinone], the “Delta (s), difference between exploration times for new and familiar object” value in test [3] (dose 1 mg/kg, p.o.) was 6.2 s.
Turning to `CC1=CC(=O)CC(c2cccc(Cl)c2)N1` (racemic) [Example 1, (±)-2-(3-Chlorophenyl)-6-methyl-2,3-dihydro-4(1H)-pyridinone], the “Inhibition (%)” value in test [1] (dose 10 mg/kg) was 51%. Also, the “T2 − T1 (s), difference between the recognition times of the 2 encounters” value in test [2] was -36 s. In addition, the “Delta (s), difference between exploration times for new and familiar object” value in test [3] (dose 0.3 mg/kg, i.p.) was 7.5 s; in test [3] (dose 0.3 mg/kg, p.o.), 9.95 s.
As for `CC1=CC(=O)CC(c2cccnc2)N1` (racemic) [Example 36, (±)-6-Methyl-2-(3-pyridyl)-2,3-dihydro-4(1H)-pyridinone], in test [2], the “T2 − T1 (s), difference between the recognition times of the 2 encounters” value was -36 s.
With `CC1=CC(=O)CC(c2ccc(Cl)cc2)CN1` (racemic) [Example 25, (±)-6-(4-Chlorophenyl)-2-methyl-1,5,6,7-tetrahydro-4H-azepin-4-one], the “Inhibition (%)” value in test [1] (dose 20 mg/kg) stood at 69%.
Consider `C[C@@H]1C[C@H](O)C[C@H](c2ccccc2)N1.O=C(O)C(=O)O` (relative stereo) [Example 22, (2R*,4S*,6R*)-2-Phenyl-6-methyl-4-piperidinol oxalate], for which the “Delta (s), difference between exploration times for new and familiar object” value in test [3] (dose 0.3 mg/kg, i.p.) is recorded as 9.98 s; in test [3] (dose 3 mg/kg, p.o.) it was 5.93 s.
For the compound `C[C@@H]1C[C@H](O)C[C@H](c2ccccc2)N1.Cl` (relative stereo) [Example 21, (2R*,4S*,6R*)-2-Phenyl-6-methyl-4-piperidinol hydrochloride], the “T2 − T1 (s), difference between the recognition times of the 2 encounters” value in test [2] is -33 s.
Regarding `COc1cccc(C2CC(=O)C=C(C)N2)c1` (racemic) [Example 27, (±)-2-(3-Methoxyphenyl)-6-methyl-2,3-dihydro-4(1H)-pyridinone], the “Delta (s), difference between exploration times for new and familiar object” value in test [3] (dose 3 mg/kg, i.p.) was determined as 6.68 s.
Take `CC1=CC(=O)CC(c2ccsc2)N1` (racemic) [Example 30, (±)-6-Methyl-2-(3-thienyl)-2,3-dihydro-4(1H)-pyridinone]: the “Inhibition (%)” value in test [1] (dose 20 mg/kg) is 51%.
